Laboratory results reported in patent US11939617B2, “Functionally modified polypeptides and radiobiosynthesis” (Ikaria Inc., priority 2016, dated 2024).
pKd: −log10 of the molar value.

What was measured:
HSA = HSA (Homo sapiens, UniProt P02768); experiment: chromatographic assay of HSA binding; details: for pKd: chromatographic HSA binding assay (Hage)
Source text: To assess albumin binding, any assay designed to measure albumin binding can be used. Chromatographic binding assays are especially useful, such as that described by Hage, D S, et al. J (Chromatogr B Biomed Sci Appl. 2000, 739:39-54). Alternatively or in conjunction, binding affinity to albumin can be determined by using surface plasmon resonance. In one method, a BIAcore 200 device (BIAcore Inc.; Piscataway, NJ) is used in combination with a procedure by Lacy, S E, et al. (MAbs, 2015. 7:605-19) as modified herein. Briefly, human and mouse albumin are captured on a CM5 chip using amine coupling at 5000 resonance units. The candidate polypeptides are injected at various concentrations (e.g., 0, 0.625, 1.25, 5, and 10 μM) at a controlled flow rate (e.g., 20 μl/min). The bound peptides are allowed to dissociate for a period of time (e.g., 5 min) before matrix regeneration using 10 mM glycine, pH 3. The signal from an injection passing over an uncoupled cell is subtracted from that of an immobilized cell to generate sensorgrams of the amount of polypeptide bound as a function of time. BIAcore kinetic evaluation software (version 3.1) can be used to determine KD from the association and dissociation rates using a one-to-one binding model. Alternatively or in conjunction, affinity to albumin can be determined using a direct assay, such as described by Nguyen, A, et al. (Protein Eng Des Sel. 2006, 19:291-7). In this method, albumin is immobilized onto high protein-binding capacity polystyrene 96 well plates at a predetermined concentration, such as 2 mg/ml, for a period of time (e.g., overnight) at 4° C. Non-specific binding sites are blocked with binding buffer, and radio-labelled candidate polypeptides are applied to the plates for a period of time, such as 30 minutes, at 25° C. Unbound candidate polypeptides are washed away, and bound candidate polypeptides detected using a radioactivity plate reader.
The two non-natural amino acids (nnAAs 1 and 2; FIG. 1) were synthesized from the corresponding NHS-esters by standard conjugation chemistry (FIG. 1). […]

[1] = test system: amber nonsense codon in GFPUV-149UAG, PylRS mutant/tRNACUA^Pyl; experiment: amber suppression in GFP by PylRS mutant in E. coli, fluorescence plate reader; type: cell-based; details: medium with 1 mM nnAA versus control LB medium, best hit from the library
Source text: Since many PylRS mutants have broad substrate specificity, we first screened only a small library of 22 previously evolved PylRS mutants for their ability to incorporate 1 and 2 into green fluorescence protein (GFP) in E coli. The screening was based on the suppression of an amber nonsense codon at a permissive site in a GFP-encoding gene. Briefly, a plasmid, pLei-GFPUV-N149UAG, which contains GFPUV-149UAG and a copy of a tRNACUA^Pyl, was co-transformed into E. coli GeneHogs strain with a plasmid containing a variant of PylRS mutant. Protein expression was carried out in control LB medium and in medium supplemented with 1 mM 1 or 2. After induction of GFP expression and cultivation (12 h), cells were collected, washed, and analyzed using a fluorescence plate reader.

[2] = daily subcutaneous injection, 70-100 mg, 1-2 mg/kg; cited from earlier work

Sequence of HSA (P02768 25-609): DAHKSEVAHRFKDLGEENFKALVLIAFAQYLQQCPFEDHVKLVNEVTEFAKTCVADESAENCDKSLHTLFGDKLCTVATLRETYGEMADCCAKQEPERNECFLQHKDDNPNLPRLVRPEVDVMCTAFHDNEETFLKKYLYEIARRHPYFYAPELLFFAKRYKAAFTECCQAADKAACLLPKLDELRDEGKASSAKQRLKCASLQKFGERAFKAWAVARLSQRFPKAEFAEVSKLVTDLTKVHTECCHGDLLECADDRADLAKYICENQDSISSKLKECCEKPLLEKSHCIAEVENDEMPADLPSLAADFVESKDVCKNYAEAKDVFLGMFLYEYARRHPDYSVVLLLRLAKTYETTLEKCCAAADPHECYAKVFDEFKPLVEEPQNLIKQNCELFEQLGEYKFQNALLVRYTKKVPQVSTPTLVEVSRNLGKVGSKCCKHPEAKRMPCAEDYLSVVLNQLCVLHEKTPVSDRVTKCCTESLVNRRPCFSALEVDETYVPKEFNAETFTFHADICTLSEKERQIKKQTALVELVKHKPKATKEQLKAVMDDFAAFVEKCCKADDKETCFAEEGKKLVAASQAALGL

Row | Compound | pKd (HSA) | full-length GFPUV production (fluorescence) [1] | albumin binding (HSA; statement in words) | time of peak serum concentration after injection [2]
1 | N[C@@H](CCCCNC(=O)CCCc1ccc(I)cc1)C(=O)O [compound 1] | 5.15 | – | – | –
2 | N[C@@H](CCCCNC(=O)CCc1ccc(I)cc1)C(=O)O [nnAA 2, Nε-(3-(4-iodophenyl)propanoyl)lysine] | 3.69 | significantly more full-length GFPUV proteins were produced | binds albumin poorly | –
3 | anakinra: 17 kD therapeutic protein currently prescribed for the treatment of rheumatoid arthritis | – | – | – | ~6 h
